Results taken from patent US9388140B2, “Substituted benzimidazoles” (priority 2011, dated 2016).
Like-named read-outs stand apart in the source and are kept apart here.

Biological target: human kinase Mps-1 (Homo sapiens (Human), UniProt P33981)
Assay: Mps-1 kinase assay (TR-FRET)
Type: biochemical
Method: The human kinase Mps-1 phosphorylates a biotinylated substrate peptide. Detection of the phosphorylated product is achieved by time-resolved fluorescence resonance energy transfer (TR-FRET) from Europium-labelled anti-phospho-Serine/Threonine antibody as donor to streptavidin labelled with cross-linked allophycocyanin (SA-XLent) as acceptor. Compounds are tested for their inhibition of the kinase activity.
N-terminally GST-tagged human full length recombinant Mps-1 kinase (purchased from Invitrogen, Karslruhe, Germany, cat. no PV4071) was used. As substrate for the kinase reaction a biotinylated peptide of the amino-acid sequence […] (C-terminus in amide form, purchased from Biosynthan GmbH, Berlin) was used.
The concentration of Mps-1 in the assay was adjusted to the activity of the enzyme lot and was chosen appropriate to have the assay in the linear range, typical enzyme concentrations were in the range of about 1 nM (final conc. in the 5 μl assay volume).
The resulting mixture was incubated 1 h at 22° C. to allow the binding of the phosphorylated peptide to the anti-phospho(Ser/Thr)-Europium-antibody. Subsequently the amount of phosphorylated substrate was evaluated by measurement of the resonance energy transfer from the Europium-labelled anti-phospho(Ser/Thr) antibody to the Streptavidin-XLent.

[1] = N-terminally GST-tagged human full length recombinant Mps-1, 10 μM ATP, 1 μM biotinylated peptide substrate, read-out: Mps1 IC50

Sequence of human kinase Mps-1 (P33981 whole entry): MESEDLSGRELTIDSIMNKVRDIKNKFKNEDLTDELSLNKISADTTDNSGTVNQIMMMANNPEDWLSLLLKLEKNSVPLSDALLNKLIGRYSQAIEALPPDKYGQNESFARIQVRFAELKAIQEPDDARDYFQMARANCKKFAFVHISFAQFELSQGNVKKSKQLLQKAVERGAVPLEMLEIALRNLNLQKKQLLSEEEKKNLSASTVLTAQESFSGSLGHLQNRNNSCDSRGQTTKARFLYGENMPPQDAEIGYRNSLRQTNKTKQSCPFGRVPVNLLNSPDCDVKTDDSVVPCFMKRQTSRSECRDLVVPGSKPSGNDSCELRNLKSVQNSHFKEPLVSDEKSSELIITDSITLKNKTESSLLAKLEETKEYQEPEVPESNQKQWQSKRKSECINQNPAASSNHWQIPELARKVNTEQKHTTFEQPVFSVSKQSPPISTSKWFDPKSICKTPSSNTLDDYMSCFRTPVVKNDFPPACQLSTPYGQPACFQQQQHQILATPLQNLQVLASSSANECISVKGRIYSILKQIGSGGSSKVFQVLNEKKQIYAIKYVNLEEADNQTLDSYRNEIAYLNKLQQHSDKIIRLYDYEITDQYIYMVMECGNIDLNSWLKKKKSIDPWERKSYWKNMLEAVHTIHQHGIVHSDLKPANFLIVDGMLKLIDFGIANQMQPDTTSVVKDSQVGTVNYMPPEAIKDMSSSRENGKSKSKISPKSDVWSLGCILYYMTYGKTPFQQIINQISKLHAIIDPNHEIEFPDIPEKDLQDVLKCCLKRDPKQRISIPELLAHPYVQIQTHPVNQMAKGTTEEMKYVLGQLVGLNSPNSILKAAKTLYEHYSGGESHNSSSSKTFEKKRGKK

With `CCNC(=O)c1ccc(-n2cnc3c(NCCC(F)(F)F)cc(-c4ccnn4C)cc32)cc1C` [Example 31, N-ethyl-2-methyl-4-{6-(1-methyl-1H-pyrazol-5-yl)-4-[(3,3,3-trifluoropropyl)amino]-1H-benzimidazol-1-yl}benzamide] the IC50 [1] was 33 nM.
Work on `CNC(=O)c1ccc(-n2cnc3c(NCCC(F)(F)F)cc(-c4ccnn4C)cc32)cc1C` [Example 32, N, 2-dimethyl-4-{6-(1-methyl-1H-pyrazol-5-yl)-4-[(3,3,3-trifluoropropyl)amino]-1H-benzimidazol-1-yl}benzamide] yielded an IC50 [1] of 20.2 nM.
Compound `COc1ccc(Oc2cc(NCCC(F)(F)F)c3ncn(-c4ccc(C(=O)NC5CC5)c(C)c4)c3c2)cc1F` [Example 33, N-cyclopropyl-4-{6-(3-fluoro-4-methoxyphenoxy)-4-[(3,3,3-trifluoropropyl)amino]-1H-benzimidazol-1-yl}-2-methylbenzamide] has an IC50 [1] of 0.7 nM.
`CCNC(=O)c1ccc(-n2cnc3c(NCCC(F)(F)F)cc(Oc4ccc(OC)c(F)c4)cc32)cc1C` [Example 34, N-ethyl-4-{6-(3-fluoro-4-methoxyphenoxy)-4-[(3,3,3-trifluoropropyl)amino]-1H-benzimidazol-1-yl}-2-methylbenzamide] was tested, and the IC50 [1] was 5.8 nM.
For `CNC(=O)c1ccc(-n2cnc3c(NCCC(F)(F)F)cc(Oc4ccc(OC)c(F)c4)cc32)cc1C` [Example 35, 4-{6-(3-Fluoro-4-methoxyphenoxy)-4-[(3,3,3-trifluoropropyl)amino]-1H-benzimidazol-1-yl}-N,2-dimethylbenzamide], the IC50 [1] was 3.9 nM.
Work on `O=C(NC1CC1)c1ccc(-n2cnc3c(NCCC(F)(F)F)cc(Oc4cccc(F)c4F)cc32)cc1` [Example 36, N-cyclopropyl-4-{6-(2,3-difluorophenoxy)-4-[(3,3,3-trifluoropropyl)amino]-1H-benzimidazol-1-yl}benzamide] yielded an IC50 of 0.4 nM.
`O=C(NC1CC1)c1ccc(-n2cnc3c(NCCC(F)(F)F)cc(Oc4ccccc4)cc32)cc1` [Example 37, N-cyclopropyl-4-{6-phenoxy-4-[(3,3,3-trifluoropropyl)amino]-1H-benzimidazol-1-yl}benzamide] gave an IC50 of 0.5 nM.
Compound `COc1ccc(Oc2cc(NCCC(F)(F)F)c3ncn(-c4ccc(C(=O)NC5CC5)cc4)c3c2)cc1F` [Example 38, N-cyclopropyl-4-{6-(3-fluoro-4-methoxyphenoxy)-4-[(3,3,3-trifluoropropyl)amino]-1H-benzimidazol-1-yl}benzamide] has an IC50 [1] of 0.4 nM.
With `CNC(=O)c1ccc(-n2cnc3c(NCCC(F)(F)F)cc(Oc4ccccc4OC)cc32)cc1C` [Example 39, 4-{6-(2-Methoxyphenoxy)-4-[(3,3,3-trifluoropropyl)amino]-1H-benzimidazol-1-yl}-N, 2-dimethylbenzamide] the IC50 [1] was 43.3 nM.
`CCNC(=O)c1ccc(-n2cnc3c(NCCC(F)(F)F)cc(Oc4ccccc4OC)cc32)cc1C` [Example 40, N-ethyl-4-{6-(2-methoxyphenoxy)-4-[(3,3,3-trifluoropropyl)amino]-1H-benzimidazol-1-yl}-2-methylbenzamide] gave an IC50 [1] of 58.2 nM.
For `COc1ccccc1Oc1cc(NCCC(F)(F)F)c2ncn(-c3ccc(C(=O)NC4CC4)c(C)c3)c2c1` [Example 41, N-cyclopropyl-4-{6-(2-methoxyphenoxy)-4-[(3,3,3-trifluoropropyl)amino]-1H-benzimidazol-1-yl}-2-methylbenzamide], the IC50 [1] was 10.1 nM.
`CNC(=O)c1ccc(-n2cnc3c(NCC4CCOCC4)cc(Oc4ccc(OC)c(F)c4)cc32)cc1C` [Example 42, 4-{6-(3-Fluoro-4-methoxyphenoxy)-4-[(tetrahydro-2H-pyran-4-ylmethyl)amino]-1H-benzimidazol-1-yl}-N,2-dimethylbenzamide] was tested, and the IC50 [1] was 4.9 nM.
`CCNC(=O)c1ccc(-n2cnc3c(NCC4CCOCC4)cc(Oc4ccc(OC)c(F)c4)cc32)cc1C` [Example 43, N-ethyl-4-{6-(3-fluoro-4-methoxyphenoxy)-4-[(tetrahydro-2H-pyran-4-ylmethyl)amino]-1H-benzimidazol-1-yl}-2-methylbenzamide] showed an IC50 [1] of 4 nM.
`COc1ccc(Oc2cc(NCC3CCOCC3)c3ncn(-c4ccc(C(=O)NC5CC5)c(C)c4)c3c2)cc1F` [Example 44, N-cyclopropyl-4-{6-(3-fluoro-4-methoxyphenoxy)-4-[(tetrahydro-2H-pyran-4-ylmethyl)amino]-1H-benzimidazol-1-yl}-2-methylbenzamide] was tested, and the IC50 [1] was 0.7 nM.
Compound `Cc1cc(-n2cnc3c(NCCC(F)(F)F)cc(Oc4ccc(OCc5ccccc5)cc4)cc32)ccc1C(=O)NC1CC1` [Example 45, 4-{6-[4-(Benzyloxy)phenoxy]-4-[(3,3,3-trifluoropropyl)amino]-1H-benzimidazol-1-yl}-N-cyclopropyl-2-methylbenzamide] has an IC50 [1] of 6.7 nM.
`CCNC(=O)c1ccc(-n2cnc3c(NCCC(F)(F)F)cc(Oc4ccc(OCc5ccccc5)cc4)cc32)cc1C` [Example 46, 4-{6-[4-(Benzyloxy)phenoxy]-4-[(3,3,3-trifluoropropyl)amino]-1H-benzimidazol-1-yl}-N-ethyl-2-methylbenzamide] was tested, and the IC50 [1] was 100 nM.
With `CNC(=O)c1ccc(-n2cnc3c(NCCC(F)(F)F)cc(Oc4ccc(OCc5ccccc5)cc4)cc32)cc1C` [Example 47, 4-{6-[4-(Benzyloxy)phenoxy]-4-[(3,3,3-trifluoropropyl)amino]-1H-benzimidazol-1-yl}-N,2-dimethylbenzamide] the IC50 [1] was 100 nM.
`CNC(=O)c1ccc(-n2cnc3c(NCCC(F)(F)F)cc(Oc4ccc(O)cc4)cc32)cc1C` [Example 48, 4-{6-(4-Hydroxyphenoxy)-4-[(3,3,3-trifluoropropyl)amino]-1H-benzimidazol-1-yl}-N,2-dimethylbenzamide] was tested, and the IC50 [1] was 5.6 nM.
Work on `CCNC(=O)c1ccc(-n2cnc3c(NCCC(F)(F)F)cc(Oc4ccc(O)cc4)cc32)cc1C` [Example 49, N-ethyl-4-{6-(4-hydroxyphenoxy)-4-[(3,3,3-trifluoropropyl)amino]-1H-benzimidazol-1-yl}-2-methylbenzamide] yielded an IC50 [1] of 5.5 nM.
For `Cc1cc(-n2cnc3c(NCCC(F)(F)F)cc(Oc4ccc(O)cc4)cc32)ccc1C(=O)NC1CC1` [Example 50, N-cyclopropyl-4-{6-(4-hydroxyphenoxy)-4-[(3,3,3-trifluoropropyl)amino]-1H-benzimidazol-1-yl}-2-methylbenzamide], the IC50 [1] was 1.1 nM.
In the case of `Cc1cc(-c2cc(NCCC(F)(F)F)c3ncn(-c4ccc(C(=O)NC5CC5)c(C)c4)c3c2)ccc1C(=O)NC1CC1` [Example 51, 4,4′-{4-[(3,3,3-Trifluoropropyl)amino]-1H-benzimidazole-1,6-diyl}bis(N-cyclopropyl-2-methylbenzamide)], the IC50 [1] is reported as 0.9 nM.
`CNC(=O)c1ccc(-c2cc(NCCC(F)(F)F)c3ncn(-c4ccc(C(=O)NC5CC5)c(C)c4)c3c2)cc1C` [Example 52, 4-{1-[4-(Cyclopropylcarbamoyl)-3-methylphenyl]-4-[(3,3,3-trifluoropropyl)amino]-1H-benzimidazol-6-yl}-N,2-dimethylbenzamide] was tested, and the IC50 [1] was 0.9 nM.
`CCNC(=O)c1ccc(-c2cc(NCCC(F)(F)F)c3ncn(-c4ccc(C(=O)NC5CC5)c(C)c4)c3c2)cc1C` [Example 53, 4-{1-[4-(Cyclopropylcarbamoyl)-3-methylphenyl]-4-[(3,3,3-trifluoropropyl)amino]-1H-benzimidazol-6-yl}-N-ethyl-2-methylbenzamide] gave an IC50 [1] of 1.9 nM.
Compound `Cc1cc(-n2cnc3c(NCCC(F)(F)F)cc(Oc4ccccc4O)cc32)ccc1C(=O)NC1CC1` [Example 54, N-cyclopropyl-4-{6-(2-hydroxyphenoxy)-4-[(3,3,3-trifluoropropyl)amino]-1H-benzimidazol-1-yl}-2-methylbenzamide] has an IC50 [1] of 0.2 nM.
Compound `CCNC(=O)c1ccc(-n2cnc3c(NCCC(F)(F)F)cc(Oc4ccccc4O)cc32)cc1C` [Example 55, N-ethyl-4-{6-(2-hydroxyphenoxy)-4-[(3,3,3-trifluoropropyl)amino]-1H-benzimidazol-1-yl}-2-methylbenzamide] has an IC50 [1] of 0.7 nM.
With `CNC(=O)c1ccc(-n2cnc3c(NCCC(F)(F)F)cc(Oc4ccccc4O)cc32)cc1C` [Example 56, 4-{6-(2-hydroxyphenoxy)-4-[(3,3,3-trifluoropropyl)amino]-1H-benzimidazol-1-yl}-N,2-dimethylbenzamide] the IC50 [1] was 0.3 nM.
Compound `COc1c(F)cccc1Oc1cc(NCCC(F)(F)F)c2ncn(-c3ccc(C(=O)NC4CC4)c(C)c3)c2c1` [Example 57, N-cyclopropyl-4-{6-(3-fluoro-2-methoxyphenoxy)-4-[(3,3,3-trifluoropropyl)amino]-1H-benzimidazol-1-yl}-2-methylbenzamide] has an IC50 [1] of 6.8 nM.
Work on `Cc1cc(-n2cnc3c(NCCC(F)(F)F)cc(Oc4cccc(OC(F)(F)F)c4)cc32)ccc1C(=O)NC1CC1` [Example 59, N-cyclopropyl-2-methyl-4-{6-[3-(trifluoromethoxy)phenoxy]-4-[(3,3,3-trifluoropropyl)amino]-1H-benzimidazol-1-yl}benzamide] yielded an IC50 [1] of 11.9 nM.
`Cc1cc(-n2cnc3c(NCCC(F)(F)F)cc(Oc4ccc(N5CCOCC5)cc4)cc32)ccc1C(=O)NC1CC1` [Example 60, N-cyclopropyl-2-methyl-4-{6-[4-(morpholin-4-yl)phenoxy]-4-[(3,3,3-trifluoropropyl)amino]-1H-benzimidazol-1-yl}benzamide] was tested, and the IC50 [1] was 11.5 nM.
Work on `Cc1cc(-n2cnc3c(NCCC(F)(F)F)cc(Oc4ccc(OC(F)F)cc4)cc32)ccc1C(=O)NC1CC1` [Example 61, N-cyclopropyl-4-{6-[4-(difluoromethoxy)phenoxy]-4-[(3,3,3-trifluoropropyl)amino]-1H-benzimidazol-1-yl}-2-methylbenzamide] yielded an IC50 [1] of 1.3 nM.
